Patent US11213583B2, “Methods and compositions for treating cancer and infectious diseases” (Cedars-Sinai Medical Center, priority 2014, dated 2022)

Assays:
RENCA tumor cells = details: Wang et al. Br J Cancer 2011; cited from earlier work
CD8 lymphocytes (IFN-γ) = assay: Tumor-specific IFN-γ response of lymphocytes harvested on day 45, RENCA model; type: in vivo, mice; details: lymphocytes harvested day 45, restimulated with CA9 peptide
Description: (§1) (a) RENCA-CA9 tumor cells were implanted into Balb/C mice (n=5 per group) on day 0. CD4 lymphocytes were depleted with αCD4 antibody on days 6 and 10. Mice were treated with daily temsirolimus on days 14 to 34. Tumor growth was monitored. Results are representative of triplicate experiments. (b) In the same experiment, lymphocytes were harvested on day 45, restimulated with CA9 peptide, and stained for CD8 and IFNγ. (c) Following CD4 depletion, spleen, lymph node and blood were collected on days 0, 1, 10. Lymphocytes were stained for CD4, CD8 and FoxP3 and analyzed by flow cytometry. (c-e) The percentages of CD4 cells in the spleen, lymph node and blood on days 0, 1, and 10 following CD4 depletion are reported. (d) Following CD4 depletion, percentages of splenocytes that are CD4 or CD8 positive are reported, and percent of CD4 cells that are FoxP3 positive is reported. (e) In the same experiment, the absolute numbers of splenocytes positive for CD4, CD8, and CD4/FoxP3 are reported. *p<0.05, **p<0.01,***p<0.005.
In the same experiment, lymphocytes were harvested on day 45 and assessed for tumor-specific IFN-γ response (FIG. 2b). In tumor-bearing mice that received no treatment, there was no IFN-γ response. […] To characterize the CD4 lymphocyte depletion in response to αCD4, naïve mice were treated with a single dose of αCD4.

RENCA tumors = assay: RENCA tumor treatment model in Balb/c mice; type: in vivo; details: αCD4 days 6 and 10; temsirolimus daily days 14 to 34; no cancer vaccine
Description: as §1
Furthermore, the presence of tumor itself increased Tregs (FIG. 8). Therefore, we hypothesized that the antitumor immunity induced by mTOR inhibition can be further enhanced by targeting Tregs. Currently there is no clinical strategy to selectively remove Tregs; however, it is feasible to deplete all CD4 lymphocytes. However, CD4 effector cells are required for immune activation. […]

Pmel-1 lymphocytes = assay: Flow cytometry of adoptively transferred Thy1.1 Pmel-1 lymphocytes after DC vaccine and temsirolimus; details: with DC vaccine
[1] = test system: CD4+FoxP3+ lymphocytes / CTL function; assay: Treg depletion with diphtheria toxin in DEREG mice, in vivo CTL assay

Molecule | growth of RENCA tumor cells in vitro (RENCA tumor cells) | tumor-specific IFN-γ response (CD8 lymphocytes (IFN-γ)) | RENCA tumor growth (RENCA tumors) | Eomes expression in Pmel-1 lymphocytes (Pmel-1 lymphocytes) | Tbet expression in Pmel-1 lymphocytes (Pmel-1 lymphocytes) | Tregs (Pmel-1 lymphocytes) | CD4+FoxP3+ lymphocytes [1]
CO[C@H]1C[C@@H]2CC[C@@H](C)[C@@](O)(O2)C(=O)C(=O)N2CCCC[C@H]2C(=O)O[C@H]([C@H](C)C[C@@H]2CC[C@@H](OC(=O)C(C)(CO)CO)[C@H](OC)C2)CC(=O)[C@H](C)/C=C(\C)[C@@H](O)[C@@H](OC)C(=O)[C@H](C)C[C@H](C)/C=C/C=C/C=C/1C [temsirolimus] | directly inhibit the growth of RENCA tumor cells in vitro | some IFN-γ response | effective in decreasing tumor growth | increased expression of Eomes | decrease in Tbet expression | increase in Tregs | –
diphtheria toxin [DT] | – | – | – | – | – | – | removed nearly all CD4+FoxP3+ lymphocytes
